Source: BindingDB's records for patent US12378192 (Chia Tai Tianqing Pharmaceutical Group Co., 2025)

Target: Cytochrome P450 3A4 (Homo sapiens, UniProt P08684)
Test: CYP450 Enzyme Induction Study
Protocol: A final incubation system of 500 μL contained 50 μL of liver microsomes (protein concentration: 0.2 mg/mL, Corning), 1 μL of mixed specific substrates of CYP450 (CYP1A2, CYP2B6, CYP2C9, CYP2C19, CYP2D6, CYP3A4), 398 μL of PBS (pH 7.4), 1 μL of specific positive inhibitor (positive control) or test compound (in acetonitrile) and 50 μL of NADPH+MgCl2. Samples were prepared in duplicate of 0.5 mL for each CYP450 subtype. For each tube, the 450 μL mixed solution of substrates and enzyme and the NADPH solution were separately pre-incubated at 37° C. for 5 min. The 50 μL mixed solution of NADPH+MgCl2 was added for reaction. At 30 min, 50 μL of the mixture was taken and 300 μL of glacial acetonitrile containing an internal standard was added to terminate the reaction. Additionally, 2 blanks of 500 μL each were prepared in parallel without adding NADPH as the negative control group.

Sequence of Cytochrome P450 3A4 (P08684 whole entry): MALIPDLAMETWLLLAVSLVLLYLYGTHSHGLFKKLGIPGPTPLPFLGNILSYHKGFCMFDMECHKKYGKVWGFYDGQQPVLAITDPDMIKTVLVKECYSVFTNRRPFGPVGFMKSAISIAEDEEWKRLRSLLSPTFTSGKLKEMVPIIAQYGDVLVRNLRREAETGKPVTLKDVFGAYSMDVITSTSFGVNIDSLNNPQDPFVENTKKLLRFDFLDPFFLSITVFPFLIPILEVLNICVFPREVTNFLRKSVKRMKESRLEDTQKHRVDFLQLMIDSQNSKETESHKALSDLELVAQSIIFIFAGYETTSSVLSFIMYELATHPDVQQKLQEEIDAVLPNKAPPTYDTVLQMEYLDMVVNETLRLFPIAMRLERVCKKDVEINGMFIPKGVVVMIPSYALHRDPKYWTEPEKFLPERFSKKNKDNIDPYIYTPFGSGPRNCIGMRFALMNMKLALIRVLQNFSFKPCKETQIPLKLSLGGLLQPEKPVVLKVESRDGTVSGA

IC50: > 200 µM
SMILES: Cc1c(C(=O)Nc2ccc(F)c(C#N)c2)c(C)n(C)c1C(=O)C(=O)NC(C)C(F)(F)F (stereo unspecified) [US12378192, Compound of formula I]
